Measurements reported in the NIST ThermoML archive (doi:10.1016/j.jct.2016.03.021).

Test: wn = mass fraction of the nth substance listed
Conditions: Liquid; for mass density: Vibrating tube method

NCCO [2-aminoethan-1-ol] + O
mass density [kg/m3]
Conditions | w1 = 0.1001 | w1 = 0.2 | w1 = 0.3005 | w1 = 0.4
333.15 K, 30000 kPa | – | – | 1003.5 | 1006.7
333.15 K, 40000 kPa | 1002.7 | 1004.5 | 1007.3 | 1010.4
333.15 K, 50000 kPa | 1006.5 | 1008 | 1010.8 | 1013.8
333.15 K, 60000 kPa | 1010.4 | 1011.7 | 1014.4 | 1017.3
333.15 K, 70000 kPa | 1014.1 | 1015.2 | 1017.8 | 1020.7
333.15 K, 80000 kPa | 1017.7 | 1018.7 | 1021.1 | 1024
333.15 K, 90000 kPa | 1021.3 | 1022.1 | 1024.4 | 1027.1
333.15 K, 100000 kPa | 1024.8 | 1025.5 | 1027.7 | 1030.3
333.15 K, 110000 kPa | 1028.1 | 1028.8 | 1031 | 1033.5
333.15 K, 120000 kPa | 1031.7 | 1032.2 | 1034.2 | 1036.7
353.15 K, 100 kPa | 974.7 | 976.7 | 979.2 | 981.9
353.15 K, 500 kPa | 974.7 | 976.7 | 979.4 | 982
353.15 K, 1000 kPa | 975 | 976.9 | 979.6 | 982.2
353.15 K, 2000 kPa | 975.4 | 977.4 | 980 | 982.6
353.15 K, 5000 kPa | 976.7 | 978.6 | 981.2 | 983.9
353.15 K, 10000 kPa | 978.9 | 980.8 | 983.3 | 986
353.15 K, 15000 kPa | 981.1 | 982.9 | 985.4 | 988
353.15 K, 20000 kPa | 983.2 | 984.9 | 987.4 | 990
353.15 K, 30000 kPa | 987.4 | 988.9 | 991.4 | 993.9
353.15 K, 40000 kPa | 991.4 | 992.9 | 995.2 | 997.7
353.15 K, 50000 kPa | 995.4 | 996.7 | 999 | 1001.4
353.15 K, 60000 kPa | 999.4 | 1000.6 | 1002.7 | 1005.1
353.15 K, 70000 kPa | 1003.1 | 1004.2 | 1006.2 | 1008.6
353.15 K, 80000 kPa | 1006.9 | 1007.7 | 1009.8 | 1012.1
353.15 K, 90000 kPa | 1010.5 | 1011.3 | 1013.1 | 1015.3
353.15 K, 100000 kPa | 1014.1 | 1014.7 | 1016.6 | 1018.7
353.15 K, 110000 kPa | 1017.7 | 1018.2 | 1020 | 1022.1
353.15 K, 120000 kPa | 1021.2 | 1021.6 | 1023.3 | 1025.2
373.15 K, 100 kPa | 960.8 | 962.5 | 964.5 | 966.6
373.15 K, 500 kPa | 961 | 962.7 | 964.8 | 966.9
373.15 K, 1000 kPa | 961.3 | 962.9 | 965 | 967.1
373.15 K, 2000 kPa | 961.8 | 963.4 | 965.5 | 967.6
373.15 K, 5000 kPa | 963.1 | 964.7 | 966.8 | 968.9
373.15 K, 10000 kPa | 965.5 | 966.9 | 969 | 971.1
373.15 K, 15000 kPa | 967.7 | 969.1 | 971.2 | 973.3
373.15 K, 20000 kPa | 969.9 | 971.3 | 973.4 | 975.4
373.15 K, 30000 kPa | 974.4 | 975.6 | 977.6 | 979.7
373.15 K, 40000 kPa | 978.7 | 979.8 | 981.7 | 983.8
373.15 K, 50000 kPa | 982.8 | 983.7 | 985.6 | 987.6
373.15 K, 60000 kPa | 986.8 | 987.7 | 989.5 | 991.6
373.15 K, 70000 kPa | 990.8 | 991.5 | 993.3 | 995.2
373.15 K, 80000 kPa | 994.8 | 995.4 | 997.1 | 999.1
373.15 K, 90000 kPa | 998.5 | 999 | 1000.8 | 1002.5
373.15 K, 100000 kPa | 1002.2 | 1002.5 | 1004.2 | 1006
373.15 K, 110000 kPa | 1005.9 | 1006.1 | 1007.7 | 1009.5
373.15 K, 120000 kPa | 1009.6 | 1009.6 | 1011.1 | 1012.9
393.15 K, 100 kPa | 945.2 | 946.5 | 948.4 | 950
393.15 K, 500 kPa | 945.6 | 946.9 | 948.8 | 950.4
393.15 K, 1000 kPa | 945.8 | 947 | 948.9 | 950.6
393.15 K, 2000 kPa | 946.3 | 947.5 | 949.4 | 951.1
393.15 K, 5000 kPa | 947.8 | 949 | 950.9 | 952.5
393.15 K, 10000 kPa | 950.3 | 951.5 | 953.3 | 955
393.15 K, 15000 kPa | 952.7 | 953.8 | 955.7 | 957.3
393.15 K, 20000 kPa | 955.2 | 956.2 | 958.1 | 959.7
393.15 K, 30000 kPa | 959.8 | 960.7 | 962.6 | 964.3
393.15 K, 40000 kPa | 964.4 | 965.2 | 967 | 968.7
393.15 K, 50000 kPa | 968.7 | 969.4 | 971.1 | 972.8
393.15 K, 60000 kPa | 973 | 973.6 | 975.3 | 977
393.15 K, 70000 kPa | 977.3 | 977.8 | 979.5 | 981.1
393.15 K, 80000 kPa | 981.3 | 981.6 | 983.2 | 985
393.15 K, 90000 kPa | 985.2 | 985.6 | 987.1 | 988.8
393.15 K, 100000 kPa | 989.1 | 989.4 | 990.9 | 992.5
393.15 K, 110000 kPa | 993 | 993 | 994.6 | 996.2
393.15 K, 120000 kPa | 996.7 | 996.7 | 998.2 | 999.7

viscosity [mPa·s]
Conditions | 333.15 K | 353.15 K
93 kPa, Concentric cylinders viscometry, w1 = 0.3 | – | 0.764
93 kPa, Concentric cylinders viscometry, w1 = 0.4 | – | 0.9518
100 kPa, Falling or rolling sphere viscometry, w1 = 0.3005 | – | 0.746
100 kPa, Falling or rolling sphere viscometry, w1 = 0.4001 | – | 0.942
101 kPa, Falling or rolling sphere viscometry, w1 = 0.3 | – | 0.746
101 kPa, Falling or rolling sphere viscometry, w1 = 0.4 | – | 0.942
5000 kPa, Falling or rolling sphere viscometry, w1 = 0.3005 | – | 0.748
5000 kPa, Falling or rolling sphere viscometry, w1 = 0.4001 | – | 0.944
10000 kPa, Falling or rolling sphere viscometry, w1 = 0.3005 | – | 0.755
10000 kPa, Falling or rolling sphere viscometry, w1 = 0.4001 | – | 0.957
20000 kPa, Falling or rolling sphere viscometry, w1 = 0.3005 | – | 0.768
20000 kPa, Falling or rolling sphere viscometry, w1 = 0.4001 | – | 0.975
30000 kPa, Falling or rolling sphere viscometry, w1 = 0.3005 | – | 0.777
30000 kPa, Falling or rolling sphere viscometry, w1 = 0.4001 | – | 0.989
40000 kPa, Falling or rolling sphere viscometry, w1 = 0.1001 | 0.63 | –
40000 kPa, Falling or rolling sphere viscometry, w1 = 0.2 | 0.815 | –
40000 kPa, Falling or rolling sphere viscometry, w1 = 0.3005 | 1.115 | 0.787
40000 kPa, Falling or rolling sphere viscometry, w1 = 0.4001 | 1.475 | 1.006
60000 kPa, Falling or rolling sphere viscometry, w1 = 0.1001 | 0.639 | –
60000 kPa, Falling or rolling sphere viscometry, w1 = 0.2 | 0.829 | 0.607
60000 kPa, Falling or rolling sphere viscometry, w1 = 0.3005 | 1.14 | 0.807
60000 kPa, Falling or rolling sphere viscometry, w1 = 0.4001 | 1.518 | 1.039
80000 kPa, Falling or rolling sphere viscometry, w1 = 0.1001 | 0.646 | –
80000 kPa, Falling or rolling sphere viscometry, w1 = 0.2 | 0.844 | 0.619
80000 kPa, Falling or rolling sphere viscometry, w1 = 0.3005 | 1.165 | 0.828
80000 kPa, Falling or rolling sphere viscometry, w1 = 0.4001 | 1.559 | 1.068
100000 kPa, Falling or rolling sphere viscometry, w1 = 0.1001 | 0.655 | –
100000 kPa, Falling or rolling sphere viscometry, w1 = 0.2 | 0.859 | 0.632
100000 kPa, Falling or rolling sphere viscometry, w1 = 0.3005 | 1.189 | 0.847
100000 kPa, Falling or rolling sphere viscometry, w1 = 0.4001 | 1.6 | 1.097
120000 kPa, Falling or rolling sphere viscometry, w1 = 0.1001 | 0.663 | –
120000 kPa, Falling or rolling sphere viscometry, w1 = 0.2 | 0.874 | 0.644
120000 kPa, Falling or rolling sphere viscometry, w1 = 0.3005 | 1.211 | 0.861
120000 kPa, Falling or rolling sphere viscometry, w1 = 0.4001 | 1.645 | 1.128
